Assay results: patent US11478474B2, “2-(3′-(hydroxymethyl)-1-methyl-5-((5-(2-methyl-4-(oxetan-3-yl)piperazin-1-yl)pyridin-2-yl)amino)-6-oxo-1,6-dihydro-[3,4′-bipyridin]-2′-yl)-7,7-dimethyl-7,8-dihydro-2H-cyclopenta[4,5]pyrrolo[1,2-a]pyrazin-1(6H)-one as a BTK inhibitor” (HUTCHISON MEDIPHARMA LIMITED, priority 2020, dated 2022)

Key:
[1] = molecular target: phosphorylated BTK in Ramos cells (Homo sapiens (Human), UniProt Q06187); assay: Determination of phosphorylated BTK in Ramos cells (BTK phospho-Y223 HTRF); type: cell-based; conditions: anti-human IgM + hydrogen peroxide stimulation
phosphorylated BTK in Ramos cells, sequence (Q06187 whole entry): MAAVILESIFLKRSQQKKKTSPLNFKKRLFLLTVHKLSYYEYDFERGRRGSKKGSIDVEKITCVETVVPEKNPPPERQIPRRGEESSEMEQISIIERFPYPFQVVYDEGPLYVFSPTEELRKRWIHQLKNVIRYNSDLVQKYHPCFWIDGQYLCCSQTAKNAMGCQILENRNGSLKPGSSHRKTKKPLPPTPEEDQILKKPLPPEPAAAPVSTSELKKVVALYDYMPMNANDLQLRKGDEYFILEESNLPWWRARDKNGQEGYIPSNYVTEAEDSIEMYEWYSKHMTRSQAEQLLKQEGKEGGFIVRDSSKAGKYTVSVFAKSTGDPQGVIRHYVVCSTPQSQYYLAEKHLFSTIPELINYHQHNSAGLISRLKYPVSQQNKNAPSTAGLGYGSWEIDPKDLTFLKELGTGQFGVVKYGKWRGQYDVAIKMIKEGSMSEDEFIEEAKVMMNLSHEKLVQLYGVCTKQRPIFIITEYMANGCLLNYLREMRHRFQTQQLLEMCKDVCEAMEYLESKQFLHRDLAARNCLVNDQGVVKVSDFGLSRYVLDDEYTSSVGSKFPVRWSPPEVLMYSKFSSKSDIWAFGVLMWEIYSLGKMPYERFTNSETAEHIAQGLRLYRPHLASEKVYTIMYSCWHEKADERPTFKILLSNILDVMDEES
Outline: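 BTK Y223 phosphorylation measured by HTRF (665/615 nm) in lysates of Ramos cells. Cells were serum-starved 2 h, exposed to compound for 1 h (final 0.00018–3.0 μM, 0.3% DMSO), then stimulated 10 min with 10 μg/mL anti-IgM and 3.3 mM H2O2. IC50 derived from percent inhibition between unstimulated and stimulated controls.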

[2] = system: B cell activation in rat whole blood; assay: Determination of B cell activity in whole blood of rats (anti-rat IgD induced B cell activation, flow cytometry); type: cell-based; conditions: anti-rat immunoglobulin D 10 μg/mL, 18 hours, inhibition of B cell activation
Procedure: Example 4 Determination of B Cell Activity in Whole Blood of Rats
1. Reagents and Materials
Peripheral whole blood of female Wistar rats;
In the determination of the compound activity, the collected peripheral whole blood of rat was added to a 96 well plate at 80 μL/well and cultured in a 5% CO2, 37° C. cell incubator. After half an hour, the test compound was diluted with PBS in a 3-fold gradient to the corresponding concentrations, and then the diluted test compound with different concentrations was added to the culture system of rat whole blood at 10 μL/well (the final concentration of the test compound was 1.0, 0.33, 0.11, 0.037, 0.012, 0.0041, 0.0014, and 0.0005 μM, the final concentration of DMSO was 0.3%, double replicate wells), or the control solution (0.3% DMSO, 6 replicate wells) was added to the corresponding well at 10 μL/well, which were incubated in the cell incubator for one hour. Then 10 μL/well of anti-rat immunoglobulin D diluted in PBS (the final concentration was 10 μg/mL) was add to the treating wells of the test compound and control wells for anti-rat immunoglobulin D, or 10 μL/well of PBS was added to the negative control wells, which were mixed well to continue the culture in a 5% CO2, 37° C. cell incubator, and incubated for 18 hours.
On the second day, the 96-well plates were taken out and the flow cytometry antibody mixture (the final concentration of anti-rat B220PE antibody was 1 μg/mL and the final concentration of anti-rat CD86 FITC antibody was 1 μg/mL) diluted with PBS was added to each well of plate, which were incubated for 30 minutes in the dark, and then 50 μL of blood from each well was pipetted to the freshly prepared 500 μL of lysis buffer to lyse red blood cells. The plates were shaken for 20 minutes, centrifuged to remove the supernatant, then washed, fixed, and detected on a flow cytometer.
The B cell activation in the sample was determined by flow dyeing method.
The average value of the proportion of activated B cells in the wells with anti-rat immunoglobulin D but without the test compound was used as the control treating well for anti-rat immunoglobulin D, and the average value of the proportion of activated B cells in the wells without immunoglobulin D stimulation and without the test compound was used as the negative control treating well. According to the B cell activation ratio in each well, the inhibition ratio (%) of each concentration was calculated, and then the IC50 value was obtained by using the 205 model in XL-Fit 5.3 software (ID Business Solutions Limited).
The inhibition ratio is calculated as follows: inhibition ratio (%)=100%−{(treating well for the test compound−negative control treating well)/(control treating well for anti-rat immunoglobulin D−negative control treating well)}×100%, wherein,
Treating well for the test compound: represents the B cell activation ratio in rat whole blood treated with anti-rat immunoglobulin D and the test compound.
Control treating well for anti-rat immunoglobulin D: represents the B cell activation ratio in rat whole blood treated with anti-rat immunoglobulin D but without the test compound.
Negative control treating well: represents the B cell activation ratio in rat whole blood without the test compound and without immunoglobulin stimulation.
Through the above-mentioned test, the compound of the present invention has a potency to inhibit B cell activation in rat whole blood.

IC50 [1] [nM]	IC50 [2] [nM]	Compound
3	41	CC1CCc2cc3c(=O)n(-c4nccc(-c5cc(Nc6ccc(N7CCN(C8COC8)C[C@@H]7C)cn6)c(=O)n(C)c5)c4CO)ccn3c2C1 (mixture of isomers) [Compound 78]
10	54	C[C@@H]1CN(c2ccc(Nc3cc(-c4ccnc(-n5ccn6c7c(cc6c5=O)CCC7)c4CO)cn(C)c3=O)nc2)[C@@H](C)CN1C1COC1 [Compound 2, 2-(5-((5-((2S,5R)-2,5-dimethyl-4-(oxetan-3-yl)piperazin-1-yl)pyridin-2-yl)amino)-3′-(hydroxymethyl)-1-methyl-6-oxo-1,6-dihydro-[3,4′-bispyridin]-2′-yl)-7,8-dihydro-2H-cyclopenta[4,5]pyrrolo[1,2-a]pyrazin-1(6H)-one]
2	17	COCCN1CCN(c2ccc(Nc3cc(-c4ccnc(-n5ccn6c7c(cc6c5=O)CC(C)(C)C7)c4CO)cn(C)c3=O)nc2)[C@@H](C)C1 [Compound 8]
4		Cn1cc(-c2ccnc(-n3ccn4c5c(cc4c3=O)CC(C)(C)C5)c2CO)cc(Nc2ccc(N3CCN(C4COC4)CC3)cn2)c1=O [Compound 9]
4	3	C[C@H]1CN(C2COC2)CCN1c1ccc(Nc2cc(-c3ccnc(-n4ccn5c6c(cc5c4=O)CC(C)(C)C6)c3CO)cn(C)c2=O)nc1 [Compound 19]
15	24	C[C@H]1CN(C2COC2)CCN1c1ccc(Nc2cc(-c3ccnc(-n4ccn5c6c(cc5c4=O)CC(C)(C)C6)c3CO)cn3ncnc23)nc1 [Compound 21]
18	34	C[C@H]1CN(C2COC2)CCN1c1ccc(Nc2cc(-c3ccnc(-n4ccn5c6c(cc5c4=O)CC(C)(C)C6)c3CO)nn(C)c2=O)nc1 [Compound 22]
30	277	C[C@H]1CN(C2COC2)CCN1c1ccc(Nc2cc(-c3ccnc(-n4ccn5c6c(cc5c4=O)CC(C)(C)C6)c3CO)cn3c(F)cnc23)nc1 [Compound 23]
7	19	C[C@H]1CN(C)CCN1c1ccc(Nc2cc(-c3ccnc(-n4ccn5c6c(cc5c4=O)CC(C)(C)C6)c3CO)cn(C)c2=O)nc1 [Compound 26]
1	5	C[C@@H]1CN(c2ccc(Nc3cc(-c4ccnc(-n5ccn6c7c(cc6c5=O)CC(C)(C)C7)c4CO)cn(C)c3=O)nc2)[C@@H](C)CN1C1COC1 [Compound 27]
2	78	Cn1cc(Nc2cc(-c3ccnc(-n4ccn5c6c(cc5c4=O)CC(C)(C)C6)c3CO)cn(C)c2=O)nn1 [Compound 28]
6	93	Cn1cc(-c2ccnc(-n3ccn4c5c(cc4c3=O)CC(C)(C)C5)c2CO)cc(Nc2cn(CCF)nn2)c1=O [Compound 31]
2	52	C[C@H]1CN(C2COC2)CCN1c1cnc(Nc2cc(-c3ccnc(-n4ccn5c6c(cc5c4=O)CC(C)(C)C6)c3CO)cn(C)c2=O)cn1 [Compound 43]
18		C[C@H]1CN(C2COC2)CCN1c1cnc(Nc2cc(-c3ccnc(-n4ccn5c6c(cc5c4=O)CC(C)(C)C6)c3CO)cn(C)c2=O)nc1 [Compound 44]
6	26	CN1CCN(C(=O)c2ccc(Nc3cc(-c4ccnc(-n5ccn6c7c(cc6c5=O)CC(C)(C)C7)c4CO)cn(C)c3=O)nc2)CC1 [Compound 48]
1	10	C[C@H]1CN(C2COC2)CCN1c1ccc(Nc2cc(-c3ccnc(-n4ccn5c6c(cc5c4=O)CC(C)(C)C6)c3CO)n[nH]c2=O)nc1 [Compound 49]
2	84	COCCN(C)c1ccc(Nc2cc(-c3ccnc(-n4ccn5c6c(cc5c4=O)CC(C)(C)C6)c3CO)cn(C)c2=O)nc1 [Compound 50]
24		C[C@H]1CN(C2COC2)CCN1c1ccc(Nc2cc(-c3ccnc(-n4ccn5c6c(cc5c4=O)CCC(F)(F)C6)c3CO)cn(C)c2=O)nc1 [Compound 56]
3	21	C[C@H]1CN(C2COC2)CCN1c1ccc(Nc2cc(-c3ccnc(-n4ccn5c(c(F)c6ccccc65)c4=O)c3CO)cn(C)c2=O)nc1 [Compound 57]
4	6	C[C@H]1CN(C2COC2)CCN1c1ccc(Nc2cc(-c3ccnc(-n4ccn5c6c(cc5c4=O)CC(F)(F)CC6)c3CO)cn(C)c2=O)nc1 [Compound 58]
1	19	C[C@@H]1CN(c2ccc(Nc3cc(-c4ccnc(-n5ccn6c(c(F)c7ccccc76)c5=O)c4CO)cn(C)c3=O)nc2)[C@@H](C)CN1C1COC1 [Compound 59]
3	34	C[C@H]1CN(C2COC2)CCN1c1ccc(Nc2cc(-c3ccnc(-n4ccn5c(c(F)c6cc(F)ccc65)c4=O)c3CO)cn(C)c2=O)nc1 [Compound 60]
5	44	C[C@H]1CN(C2COC2)CCN1c1ccc(Nc2cc(-c3ccnc(-n4cnn5c6c(cc5c4=O)CC(C)(C)C6)c3CO)cn(C)c2=O)nc1 [Compound 63]
10	52	C[C@H]1CN(C2COC2)CCN1c1ccc(Nc2cc(-c3ccnc(-n4ccn5c6c(cc5c4=O)CCC6)c3CO)cn(C)c2=O)nc1 [Compound 64]
6	92	CCn1cc(Nc2cc(-c3ccnc(-n4ccn5c6c(cc5c4=O)CC(C)(C)C6)c3CO)cn3ncnc23)nn1 [Compound 71]
11		C[C@H]1CN(C2COC2)CCN1c1ccc(Nc2cc(-c3ccnc(-n4ccn5c(cc6ccccc65)c4=O)c3CO)cn(C)c2=O)nc1 [Compound 74]
7	85	C[C@H]1CN(C2COC2)CCN1c1ccc(Nc2cc(-c3ccnc(-n4ccn5c(cc6cc(F)ccc65)c4=O)c3CO)cn(C)c2=O)nc1 [Compound 75]
2	6	C[C@H]1CN(C2COC2)CCN1c1ccc(Nc2cc(-c3ccnc(-n4ncn5c6c(cc5c4=O)CC(C)(C)C6)c3CO)cn(C)c2=O)nc1 [Compound 79]
